Assay results reported in patent publication US20250152584A1, “NLRP3 INFLAMMASOME INHIBITOR AND USES THEREOF” (TransThera Sciences (Nanjing), Inc., priority 2022, published 2025).
Where two headings read alike, the source gives them in different places.

Experiments:
[1] = target: T1, hERG potassium ion channel (Homo sapiens, UniProt Q12809); test: Inhibition of hERG potassium ion channels, manual patch-clamp in HEK-293 cells; assay type: cell-based; conditions: HEK-293 cells stably expressing hERG, whole-cell manual patch-clamp, room temperature
T1 construct: expressed in transfected cells
T1 sequence (Q12809 whole entry): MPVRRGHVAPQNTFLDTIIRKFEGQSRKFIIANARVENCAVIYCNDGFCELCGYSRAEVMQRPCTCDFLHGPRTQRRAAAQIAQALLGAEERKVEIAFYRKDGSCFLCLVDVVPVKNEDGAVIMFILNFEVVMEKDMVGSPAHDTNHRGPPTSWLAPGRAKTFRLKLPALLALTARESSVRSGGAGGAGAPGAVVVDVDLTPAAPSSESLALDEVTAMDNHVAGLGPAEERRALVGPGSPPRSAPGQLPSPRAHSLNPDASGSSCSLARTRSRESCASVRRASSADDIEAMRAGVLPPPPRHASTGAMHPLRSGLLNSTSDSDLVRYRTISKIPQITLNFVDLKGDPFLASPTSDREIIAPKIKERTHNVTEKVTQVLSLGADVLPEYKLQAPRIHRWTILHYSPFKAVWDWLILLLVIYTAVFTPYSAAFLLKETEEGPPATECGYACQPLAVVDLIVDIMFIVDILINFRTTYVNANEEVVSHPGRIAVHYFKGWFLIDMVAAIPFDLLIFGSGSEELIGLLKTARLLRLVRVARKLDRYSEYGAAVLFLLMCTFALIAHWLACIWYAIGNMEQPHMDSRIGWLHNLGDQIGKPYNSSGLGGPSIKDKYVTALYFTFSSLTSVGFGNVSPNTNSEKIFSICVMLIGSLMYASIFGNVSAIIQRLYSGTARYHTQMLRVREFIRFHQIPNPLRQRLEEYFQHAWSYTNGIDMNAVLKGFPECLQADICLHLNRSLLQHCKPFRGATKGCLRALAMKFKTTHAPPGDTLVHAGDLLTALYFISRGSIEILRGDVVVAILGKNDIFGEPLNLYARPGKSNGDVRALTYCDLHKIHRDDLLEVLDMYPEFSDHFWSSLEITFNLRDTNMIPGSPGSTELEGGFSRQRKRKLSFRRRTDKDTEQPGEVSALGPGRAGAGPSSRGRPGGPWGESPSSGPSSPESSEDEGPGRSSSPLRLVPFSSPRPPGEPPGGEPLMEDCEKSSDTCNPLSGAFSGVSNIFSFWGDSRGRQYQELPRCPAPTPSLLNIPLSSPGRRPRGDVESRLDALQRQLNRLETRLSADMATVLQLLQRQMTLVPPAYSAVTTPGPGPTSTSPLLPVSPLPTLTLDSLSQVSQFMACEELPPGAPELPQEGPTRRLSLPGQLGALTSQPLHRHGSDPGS
Protocol: Experimental Example 5: Test for Inhibition of hERG Potassium Ion Channels by Compound
Experimental Objective: To study the inhibitory effect of the compound on hERG potassium ion channels by a manual patch-clamp technique. […]
• 2.1 Blank control: DMSO stock. • 2.2 Positive control: 10 mM stock formulated from a appropriate amount of Cisapride and dimethyl sulfoxide (DMSO). The stock was aliquoted and stored at −20° C. • 2.3 Compound: An appropriate amount of compound was weighed; the volume of DMSO required was calculated according to the formula: DMSO volume=actual amount×purity (content)/(molecular weight×theoretical concentration), and the corresponding volume of DMSO was pipetted; then, the weighed compound was dissolved with the pipetted DMSO, and the mass of DMSO was measured at the same time; and finally, the actual stock concentration was calculated according to the final amount of DMSO used. […]

[2] = Pharmacokinetic study in beagles; assay type: in vivo; conditions: beagle, dog, plasma, male beagles
Protocol: Experimental Example 4: Pharmacokinetic Study of Compounds in Beagles
Compound 174 was prepared into a solution with a mixed solvent formulated from 5% dimethyl sulfoxide, 20% (30% solutol) and 75% normal saline; the solution of this compound was administered to male beagles by gavage at a dose of 1.0 mg/kg; and the time points for blood collection were: 15 min, 30 min, 1 b, 2 h, 4 h, 6 b, 8 h, 10 h and 24 h. The solution of the compound was administered to male beagles by intravenous bolus at a dose of 1.0 mg/kg, and the time points for blood collection were as follows: 5 min, 15 min, 30 min, 1 h, 2 h, 4 h, 6 h, 8 h, 10 h, and 24 h.
Compound 177 and Compound 195 were prepared into solutions with a mixed solvent formulated from 5% dimethyl sulfoxide, 20% (30% solutol) and 75% normal saline, respectively; the solutions of these compounds were administered to male beagles by gavage at a dose of 1.0 mg/kg; and the time points for blood collection were: 15 min, 30 min, 1 h, 2 h, 4 h, 6 h, 8 h, 10 h and 24 h. The solution of the compound was administered to male beagles by intravenous bolus at a dose of 1.0 mg/kg, and the time points for blood collection were as follows: 5 min, 15 min, 30 min, 1 h, 2 h, 4 h, 6 h, 8 h, 10 h, and 24 h.
Approximately 400 μL of blood was collected through the medial cephalic vein of the forelimb and placed in an anticoagulant tube containing EDTA-K2. Blood samples were centrifuged at 12,000 rpm for 10 min at 4° C. to obtain plasma samples, and plasma was prepared within 30 min after blood collection. The plasma was stored in a −80° C. freezer before testing.

Row | Structure (SMILES) | IC50 [1] [µM] | AUC(0-t) ([2]; po, gavage 1.0 mg/kg, read-out: AUClast po (area under the drug-time curve for 0-24 h)) [ng·h/mL] | Cmax ([2]; po, gavage 1.0 mg/kg, read-out: Cmax po (peak concentration)) [ng/mL] | Tmax ([2]; po, gavage 1.0 mg/kg, read-out: Tmax po (peak time of plasma concentration)) [h] | half-life ([2]; po, gavage 1.0 mg/kg, read-out: tz1/2 po (terminal elimination half-life) (converted)) [h] | AUC(0-t) ([2]; intravenous bolus 1.0 mg/kg, read-out: AUClast iv (area under the drug-time curve for 0-24 h)) [ng·h/mL] | clearance ([2]; intravenous bolus 1.0 mg/kg, read-out: Cl—obs iv (clearance rate) (converted)) [mL/min/kg] | Vd ([2]; intravenous bolus 1.0 mg/kg, read-out: Vss iv (volume of distribution)) [L/kg] | half-life ([2]; intravenous bolus 1.0 mg/kg, read-out: tz1/2 iv (terminal elimination half-life) (converted)) [h] | bioavailability ([2]; iv 1.0 mg/kg / po 1.0 mg/kg, read-out: F % (absolute bioavailability)) [%]
1 | C#Cc1ccc(-c2nnc(N[C@@H]3CCCN(C)C3)cc2C)c(O)c1 [Compound 54, (R)-5-ethynyl-2-(4-methyl-6-((1-methylpiperidin-3-yl)amino)pyridazin-3-yl)phenol] | > 10 |  |  |  |  |  |  |  |  | 
2 | CC#Cc1ccc(-c2nnc(N[C@@H]3CCCN(C)C3)cc2C)c(O)c1 [Compound 174, (R)-2-(4-methyl-6-((1-methylpiperidin-3-yl)amino)pyridazin-3-yl)-5-(prop-1-yn-1-yl)phenol] |  | 1660 | 105 | 4 | 14.7 | 1980 | 5.53 | 7.39 | 15.8 | 83.8
